Consider three compounds from patent US12643855B2, “Fluorogenic dimer compound, useful as a probe for detection of endogenous receptors” (UNIVERSITE DE STRASBOURG, priority 2020, dated 2026).

Where two headings read alike, the source gives them in different places.

For data set [1] the following is noted: in MeOH; cited from earlier work.
Data set [2] concerns the target T1, endogenous OTR (oxytocin receptor) in mammary glands (Mus musculus, UniProt P97926).
T1 construct: target-specific imaging of the naturally expressed receptor in living mice; from tissue; host or cells: living lactating Swiss mice (mammary glands), in vivo imaging
T1 sequence (P97926 1-388): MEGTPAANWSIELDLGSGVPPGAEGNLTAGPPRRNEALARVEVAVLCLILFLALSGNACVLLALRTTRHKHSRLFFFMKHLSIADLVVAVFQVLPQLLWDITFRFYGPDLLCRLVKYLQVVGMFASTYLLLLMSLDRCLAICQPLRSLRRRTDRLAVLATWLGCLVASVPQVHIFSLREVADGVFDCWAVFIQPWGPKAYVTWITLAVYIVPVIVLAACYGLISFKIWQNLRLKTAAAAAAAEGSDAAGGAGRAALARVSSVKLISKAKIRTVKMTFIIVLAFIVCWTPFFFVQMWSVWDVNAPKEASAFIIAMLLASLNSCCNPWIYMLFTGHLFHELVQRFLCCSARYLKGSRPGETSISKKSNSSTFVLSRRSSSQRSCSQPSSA
Briefly: In vivo fluorescence biodistribution study (small animal fluorescence imaging). Particulars: lactating mice, 7.5 nmol i.v., imaged 30 min after.
Description: Representative images of at least 3 biological replicates.
Twelve-week-old pregnant female Swiss mice were purchased from Janvier Laboratories (France). Animals were maintained under controlled environmental conditions (20±2° C.) with a relative humidity (50±10%) and a 12 hour light/dark cycle in Individually ventilated cages (GM500, Techniplast) with bedding made from spruce wood chips (Safe, villeAugy, France) and enriched with nestlets. Food (autoclavable diet, D04, Safe, France) and tap water were available ad libitum. Animal experimentation was conducted with the approval of the French ministry of agriculture and the Ethics local committee for animal experimentation of the Strasbourg University (CREMEAS) under the authorization number #11974-2017103010101372.
Animal fluorescence imaging was performed using a luminograph (NightOwl, Berthold Technologies). Lactating mice 11 days after delivery were anesthetized intraperitoneally (Ketamine 150 mg/kg, xylazine 10 mg/kg). Fluorescent compounds (100 μL containing 7.5 nmol in 0.9% NaCl) with or without non-fluorescent carbetocin (100 μL containing 450 nmol in 0.9% NaCl) were administered intravenously (tail vein). […] Mice were imaged using a halogen lamp (75 W, 340-750 nm) and emission of the dyes was recorded using a 630/700 nm filter. […]

Data set [3] relates to GFP-fused oxytocin receptor (GFP-OTR). Description: Fluorescence confocal microscopy on living HEK293 cells expressing GFP-OTR, no-wash conditions. In kind it is cell-based. As to conditions: 500 nM. As for the experimental part: FIG. 1: Confocal microscopy studies of dCy5.5-PEG-CBT and mCy5.5-PEG-CBT on living HEK 293 cells expressing OTR-GFP fusion under no-wash conditions. Cells were incubated with the ligands for 5 min at room temperature prior to the imaging.
HEK293 cells expressing the GFP-fused oxytocin receptor (GFP-OTR) and wild-type HEK293 cells were cultured in Eagle's minimal essential medium (MEM, Invitrogen 21090) with 10% of heat-inactivated fetal bovine serum, 100 U/mL of penicillin, 100 µg/mL of streptomycin, 2 mM of glutamine and 50 µg/mL of hygromycin B for GFP-OTR cells at 37° C. in a humidified 5% CO2 atmosphere. 70-80% cell confluence was maintained by removal of a portion of the culture and replacement with fresh medium twice a week. For confocal microscopy studies, cells were seeded onto 35 mm ibiTreat Ibidi Polymer Coverslip at a density of 100 000 cells/Ibidi 24 h before microscopy.
[…] For competition experiments, a mixture of 10 nM of fluorescent ligands and 2 μM of carbetocin was used. Fluorescence confocal microscopy experiments were performed on a Leica TCS SPE-II microscope with a HXC PL APO 63×/1.40 OIL CS objective. GFP excitation was performed with a 488 nm 10 mW laser, the excitation of Cy5.5 was performed with a 635 nm 18 mW laser. Image treatment was proceeded using ImageJ (Wayne Rasband, National Institute of Mental Health, Bethesda).

The conditions of data set [4]: in EtOH; cited from earlier work.
The conditions of data set [5]: in EtOH; cited from earlier work. This is another data set of the same source.

For the compound `CCCCCCCCCCCCCCCCCCN1/C(=C/C=C/C=C/C2=[N+](CCCCCCCCCCCCCCCCCC)c3ccccc3C2(C)C)C(C)(C)c2ccccc21.[O-][Cl+3]([O-])([O-])[O-]` [DID], in data set [1], the “Fluorescence quantum yield (QY) of the reference” value is 33%. `CC[C@H](C)[C@@H]1NC(=O)[C@H](Cc2ccc(OC)cc2)NC(=O)CCCSC[C@@H](C(=O)N2CCC[C@H]2C(=O)N[C@@H](CCCCn2cc(CNC(=O)CCNC(=O)CCC(=O)NCCOCCOCCNC(=O)CCC(=O)NCCOCCOCCNC(=O)CCC(=O)NCCOCCOCCNC(=O)CCCCCN3/C(=C/C=C/C=C/C4=[N+](CCOCCOCCOCCOCCOCCOCCOCCOC)c5ccc6ccccc6c5C4(C)C)C(C)(C)c4c3ccc3ccccc43)nn2)C(=O)NCC(N)=O)NC(=O)[C@H](CC(N)=O)NC(=O)[C@H](CCC(N)=O)NC1=O.O=C([O-])C(F)(F)F` [mCy5.5-PEG-CBT]: the Off-target fluorescence signal result in data set [2] was “strong off-target fluorescence”. Besides, the “Image background from unbound probe” value in data set [3] is on record as “strong background”.

Take Rhodamine 800: the “Fluorescence quantum yield (QY) of the reference” value in data set [4] and in data set [5] was 25% each time.
